Reference: ChEMBL document CHEMBL1201862, “PubChem BioAssay data set” (2004)
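Where inhibition never reached the appropriate level, the endpoint shown equals the highest concentration tested. Otherwise, values were interpolated linearly from a five-concentration, 48-hour dose response in 96-well plates. GI50: concentration for 50% inhibition of growth.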 The source made the active and inactive calls. Cut-off read from the data, not from the text of the source: active = GI50 up to about 1.1 µM and inactive = higher.

Columns and labels:
Assay in all cases: NCI-60 cell line screen, 48 h
A549 = system: A549
SNB-75 = system: SNB-75
MOLT-4 = system: MOLT-4
HCC 2998 = system: HCC 2998
MCF7 = system: MCF7
BT-549 = system: BT-549
CAKI-1 = system: CAKI-1
K562 = system: K562
SK-OV-3 = system: SK-OV-3
HT-29 = system: HT-29
UACC-257 = system: UACC-257
RXF 393 = system: RXF 393
NCI-H23 = system: NCI-H23
OVCAR-3 = system: OVCAR-3
A498 = system: A498
SR = system: SR
UO-31 = system: UO-31
NCI-H226 = system: NCI-H226
MDA-MB-231 = system: MDA-MB-231
KM12 = system: KM12
SNB-19 = system: SNB-19
786-0 = system: 786-0
SF-268 = system: SF-268
HCT-15 = system: HCT-15
RPMI-8226 = system: RPMI-8226
SN12C = system: SN12C
NCI-H522 = system: NCI-H522
TK-10 = system: TK-10
NCI/ADR-RES = system: NCI/ADR-RES
MDA-MB-435 = system: MDA-MB-435
OVCAR-8 = system: OVCAR-8
LOX IMVI = system: LOX IMVI
DU-145 = system: DU-145
SK-MEL-5 = system: SK-MEL-5
EKVX = system: EKVX
UACC-62 = system: UACC-62
SK-MEL-28 = system: SK-MEL-28
OVCAR-5 = system: OVCAR-5
CCRF-CEM = system: CCRF-CEM
SF-539 = system: SF-539
ACHN = system: ACHN
HCT-116 = system: HCT-116
SF-295 = system: SF-295
HOP-62 = system: HOP-62
Malme-3M = system: Malme-3M
COLO 205 = system: COLO 205
M14 = system: M14
SK-MEL-2 = system: SK-MEL-2
SW-620 = system: SW-620
U-251 = system: U-251
OVCAR-4 = system: OVCAR-4
IGROV-1 = system: IGROV-1
PC-3 = system: PC-3
MDA-N = system: MDA-N
Hs-578T = system: Hs-578T
T47D = system: T47D
HL-60 = system: HL-60
NCI-H460 = system: NCI-H460

Compound: COC(=O)C([C@H]1CC[C@H](OCc2ccccc2)[C@@]1(O)COCc1ccccc1)C(C)(O)CCc1ccccc1 (stereo partly specified)
- GI50 (A549): 6.71 µM (inactive)
- GI50 (SNB-75): 2.07 µM (inactive)
- GI50 (MOLT-4): 3.63 µM (inactive)
- GI50 (HCC 2998): 14 µM (inactive)
- GI50 (MCF7): 10.1 µM (inactive)
- GI50 (BT-549): 16.7 µM (inactive)
- GI50 (CAKI-1): 57.9 µM (inactive)
- GI50 (K562): 8.15 µM (inactive)
- GI50 (SK-OV-3): 27.1 µM (inactive)
- GI50 (HT-29): 4.55 µM (inactive)
- GI50 (UACC-257): 13.8 µM (inactive)
- GI50 (RXF 393): 10.4 µM (inactive)
- GI50 (NCI-H23): 15.4 µM (inactive)
- GI50 (OVCAR-3): 12.7 µM (inactive)
- GI50 (A498): 15 µM (inactive)
- GI50 (SR): 5.43 µM (inactive)
- GI50 (UO-31): 10.7 µM (inactive)
- GI50 (NCI-H226): 11.8 µM (inactive)
- GI50 (MDA-MB-231): 12 µM (inactive)
- GI50 (KM12): 3.32 µM (inactive)
- GI50 (SNB-19): 26.5 µM (inactive)
- GI50 (786-0): 12.9 µM (inactive)
- GI50 (SF-268): 4.01 µM (inactive)
- GI50 (HCT-15): 13.5 µM
- GI50 (RPMI-8226): 9.89 µM (inactive)
- GI50 (SN12C): 5.13 µM (inactive)
- GI50 (NCI-H522): 8.07 µM (inactive)
- GI50 (TK-10): 17.1 µM (inactive)
- GI50 (NCI/ADR-RES): 4.06 µM (inactive)
- GI50 (MDA-MB-435): 14.4 µM (inactive)
- GI50 (OVCAR-8): 13.4 µM (inactive)
- GI50 (LOX IMVI): 8.47 µM (inactive)
- GI50 (DU-145): 24.2 µM (inactive)
- GI50 (SK-MEL-5): 14.1 µM (inactive)
- GI50 (EKVX): 8.57 µM (inactive)
- GI50 (UACC-62): 13.2 µM (inactive)
- GI50 (SK-MEL-28): 15.3 µM (inactive)
- GI50 (OVCAR-5): 13.5 µM (inactive)
- GI50 (CCRF-CEM): 6.92 µM (inactive)
- GI50 (SF-539): 15.4 µM (inactive)
- GI50 (ACHN): 12.5 µM (inactive)
- GI50 (HCT-116): 10.7 µM (inactive)
- GI50 (SF-295): 8.41 µM (inactive)
- GI50 (HOP-62): 15.2 µM (inactive)
- GI50 (Malme-3M): 11.5 µM (inactive)
- GI50 (COLO 205): 12.2 µM (inactive)
- GI50 (M14): 10.6 µM (inactive)
- GI50 (SK-MEL-2): 12.2 µM (inactive)
- GI50 (SW-620): 13.5 µM (inactive)
- GI50 (U-251): 11.6 µM (inactive)
- GI50 (OVCAR-4): 17.1 µM (inactive)
- GI50 (IGROV-1): 10.9 µM (inactive)
- GI50 (PC-3): 4.13 µM (inactive)
- GI50 (MDA-N): 13.1 µM (inactive)

Compound: CC(C)(O)[C@@H]1CC[C@](C)(C2[C@@H](O)C[C@@]3(C)C4C[C@H](OC5OCC(O)C(O)C5O)[C@H]5C(C)(C)[C@@H](OC6OCC(O)C(O)C6OC6OCC(O)C(O)C6O)CC[C@@]56C[C@@]46CC[C@]23C)O1 (stereo partly specified)
- GI50 (A549): > 100 µM (inactive)
- GI50 (SNB-75): > 100 µM (inactive)
- GI50 (MOLT-4): > 100 µM (inactive)
- GI50 (HCC 2998): > 100 µM (inactive)
- GI50 (Hs-578T): > 100 µM (inactive)
- GI50 (MCF7): > 100 µM (inactive)
- GI50 (BT-549): > 100 µM (inactive)
- GI50 (CAKI-1): > 100 µM (inactive)
- GI50 (K562): > 100 µM (inactive)
- GI50 (SK-OV-3): > 100 µM (inactive)
- GI50 (HT-29): > 100 µM (inactive)
- GI50 (RXF 393): > 100 µM (inactive)
- GI50 (NCI-H23): > 100 µM (inactive)
- GI50 (OVCAR-3): > 100 µM (inactive)
- GI50 (A498): > 100 µM (inactive)
- GI50 (SR): > 100 µM (inactive)
- GI50 (UO-31): > 100 µM (inactive)
- GI50 (NCI-H226): > 100 µM (inactive)
- GI50 (MDA-MB-231): > 100 µM (inactive)
- GI50 (KM12): > 100 µM (inactive)
- GI50 (SNB-19): > 100 µM (inactive)
- GI50 (786-0): > 100 µM (inactive)
- GI50 (SF-268): > 100 µM (inactive)
- GI50 (HCT-15): > 100 µM
- GI50 (RPMI-8226): > 100 µM (inactive)
- GI50 (SN12C): > 100 µM (inactive)
- GI50 (T47D): > 100 µM (inactive)
- GI50 (NCI-H522): > 100 µM (inactive)
- GI50 (NCI/ADR-RES): > 100 µM (inactive)
- GI50 (MDA-MB-435): > 100 µM (inactive)
- GI50 (OVCAR-8): > 100 µM (inactive)
- GI50 (DU-145): > 100 µM (inactive)
- GI50 (SK-MEL-5): > 100 µM (inactive)
- GI50 (EKVX): > 100 µM (inactive)
- GI50 (UACC-62): > 100 µM (inactive)
- GI50 (SK-MEL-28): > 100 µM (inactive)
- GI50 (HL-60): > 100 µM (inactive)
- GI50 (OVCAR-5): > 100 µM (inactive)
- GI50 (NCI-H460): > 100 µM (inactive)
- GI50 (CCRF-CEM): > 100 µM (inactive)
- GI50 (SF-539): > 100 µM (inactive)
- GI50 (HCT-116): > 100 µM (inactive)
- GI50 (SF-295): > 100 µM (inactive)
- GI50 (HOP-62): > 100 µM (inactive)
- GI50 (COLO 205): > 100 µM (inactive)
- GI50 (M14): > 100 µM (inactive)
- GI50 (SK-MEL-2): > 100 µM (inactive)
- GI50 (SW-620): > 100 µM (inactive)
- GI50 (U-251): > 100 µM (inactive)
- GI50 (OVCAR-4): > 100 µM (inactive)
- GI50 (IGROV-1): > 100 µM (inactive)
- GI50 (PC-3): > 100 µM (inactive)
